According to the supplement of paper PMC10307832:

Tests used:
Experiment in all cases: relative viability (nuclei count vs DMSO), 5 days (fraction); higher = more cells survive
Omipalisib + Linsitinib = compound: COc1ncc(-c2ccc3nccc(-c4ccnnc4)c3c2)cc1NS(=O)(=O)c1ccc(F)cc1F [Omipalisib] + C[C@]1(O)C[C@@H](c2nc(-c3ccc4ccc(-c5ccccc5)nc4c3)c3c(N)nccn32)C1 [Linsitinib] (partner 1 µM)
Method in brief: (§1)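 Relative viability divides the nuclei count in treated wells by that in vehicle wells. Lung cancer cell lines were seeded in 1536-well plates, dosed by pin tool the next day, and fixed and stained after 5 days in one step with final 0.05% Triton X-100, 1% formaldehyde and 1 ug/ml Hoechst. Dosing was a single drug or a fixed anchor-drug dose plus five library-drug doses (not always all listed) in √10 steps, and values are medians of duplicate plates imaged at 4×.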

Omipalisib + Navitoclax = compound: COc1ncc(-c2ccc3nccc(-c4ccnnc4)c3c2)cc1NS(=O)(=O)c1ccc(F)cc1F [Omipalisib] + CC1(C)CCC(c2ccc(Cl)cc2)=C(CN2CCN(c3ccc(C(=O)NS(=O)(=O)c4ccc(N[C@H](CCN5CCOCC5)CSc5ccccc5)c(S(=O)(=O)C(F)(F)F)c4)cc3)CC2)C1 [Navitoclax] (partner 0.5 µM)
Method in brief: as §1

Omipalisib + Pemetrexed = compound: COc1ncc(-c2ccc3nccc(-c4ccnnc4)c3c2)cc1NS(=O)(=O)c1ccc(F)cc1F [Omipalisib] + Nc1nc2[nH]cc(CCc3ccc(C(=O)N[C@@H](CCC(=O)O)C(=O)O)cc3)c2c(=O)[nH]1 [Pemetrexed] (partner 0.2 µM)
Method in brief: as §1

Omipalisib + Pictilisib = compound: COc1ncc(-c2ccc3nccc(-c4ccnnc4)c3c2)cc1NS(=O)(=O)c1ccc(F)cc1F [Omipalisib] + CS(=O)(=O)N1CCN(Cc2cc3nc(-c4cccc5[nH]ncc45)nc(N4CCOCC4)c3s2)CC1 [Pictilisib] (partner 1 µM)
Method in brief: as §1

Omipalisib + Foretinib = compound: COc1ncc(-c2ccc3nccc(-c4ccnnc4)c3c2)cc1NS(=O)(=O)c1ccc(F)cc1F [Omipalisib] + COc1cc2c(Oc3ccc(NC(=O)C4(C(=O)Nc5ccc(F)cc5)CC4)cc3F)ccnc2cc1OCCCN1CCOCC1 [Foretinib] (partner 0.25 µM)
Method in brief: as §1

Omipalisib + Palbociclib = compound: COc1ncc(-c2ccc3nccc(-c4ccnnc4)c3c2)cc1NS(=O)(=O)c1ccc(F)cc1F [Omipalisib] + CC(=O)c1c(C)c2cnc(Nc3ccc(N4CCNCC4)cn3)nc2n(C2CCCC2)c1=O [Palbociclib] (partner 0.5 µM)
Method in brief: as §1

Row | Cell Line | relative viability (Omipalisib + Linsitinib; first compound 0.0003 µM) | relative viability (Omipalisib + Linsitinib; first compound 0.003 µM) | relative viability (Omipalisib + Linsitinib; first compound 0.03 µM) | relative viability (Omipalisib + Navitoclax; first compound 0.0003 µM) | relative viability (Omipalisib + Navitoclax; first compound 0.003 µM) | relative viability (Omipalisib + Navitoclax; first compound 0.03 µM) | relative viability (Omipalisib + Pemetrexed; first compound 0.0003 µM) | relative viability (Omipalisib + Pemetrexed; first compound 0.003 µM) | relative viability (Omipalisib + Pemetrexed; first compound 0.03 µM) | relative viability (Omipalisib + Pictilisib; first compound 0.0003 µM) | relative viability (Omipalisib + Pictilisib; first compound 0.003 µM) | relative viability (Omipalisib + Pictilisib; first compound 0.03 µM) | relative viability (Omipalisib + Foretinib; first compound 0.0003 µM) | relative viability (Omipalisib + Foretinib; first compound 0.003 µM) | relative viability (Omipalisib + Foretinib; first compound 0.03 µM) | relative viability (Omipalisib + Palbociclib; first compound 0.0003 µM) | relative viability (Omipalisib + Palbociclib; first compound 0.003 µM) | relative viability (Omipalisib + Palbociclib; first compound 0.03 µM)
1 | SW 1573 | 0.777 | 0.476 | 0.465 | 0.921 | 0.745 | 0.475 | 0.568 | 0.549 | 0.366 | 0.495 | 0.388 | 0.341 | 0.693 | 0.595 | 0.401 | 0.335 | 0.325 | 0.191
2 | UMC-11 | 0.953 | 0.838 | 0.694 | 0.31 | 0.277 | 0.265 | 0.717 | 0.63 | 0.648 | 0.702 | 0.425 | 0.67 | 1.04 | 0.803 | 0.795 | 0.332 | 0.272 | 0.299
